Activity coefficient data for 44 compounds are collected here from the NIST ThermoML archive (doi:10.1021/je200628n).

± gives the expanded uncertainty stated by the source.

This data set can be described thus: activity coefficient (dimensionless); of the first substance listed, at infinite dilution; xn = mol fraction of the nth substance listed. To be noted: 101 kPa, Liquid, Chromatography, x1 = 0.

With `C=CCCCCCC` [oct-1-ene] + NCCCCCCCCN, the activity coefficient by setting is: (328.15 K) 3.94 ± 0.2; (338.15 K) 3.38 ± 0.17; (343.15 K) 3.16 ± 0.16; (348.15 K) 3 ± 0.15.
Turning to `CCCCCC` [hexane] + NCCCCCCCCCCN, the activity coefficient by setting is: (338.2 K) 4.96 ± 0.26; (348.15 K) 4.55 ± 0.23; (353.22 K) 4.41 ± 0.23.
`C=CCCCC` [hex-1-ene] + NCCCCCCCCCCN: the activity coefficient (338.2 K) was found to be 3.37 ± 0.17, the activity coefficient (348.15 K) was 3.06 ± 0.16 and the activity coefficient (353.22 K) turned out to be 2.92 ± 0.15.
Regarding `C=CCCCC` [hex-1-ene] + NCCCCCCCCN, the activity coefficient turned out to be 3.18 ± 0.16 (328.15 K), 2.94 ± 0.15 (338.15 K), 2.85 ± 0.15 (343.15 K) and 2.77 ± 0.14 (348.15 K).
Turning to `CCCCO` [butan-1-ol] + NCCCCCCCCCCN, the activity coefficient by setting is: (338.2 K) 0.721 ± 0.035; (348.15 K) 0.774 ± 0.037; (353.22 K) 0.815 ± 0.038.
With `CCCCCCCl` [1-chlorohexane] + NCCCCCCCCCCCCN, the activity coefficient is, setting by setting: (348.25 K) 4.5 ± 0.23; (353.15 K) 4.27 ± 0.22; (358.25 K) 4.11 ± 0.21; (363.21 K) 3.94 ± 0.2.
With `CO` [methanol] + NCCCCCCCCN, the activity coefficient by setting is: (328.15 K) 0.284 ± 0.028; (338.15 K) 0.317 ± 0.028; (343.15 K) 0.34 ± 0.028; (348.15 K) 0.369 ± 0.029.
Consider `CCO` [ethanol] + NCCCCCCCCCCN, for which the activity coefficient (338.2 K) was determined as 0.602 ± 0.033, the activity coefficient (348.15 K) was found to be 0.676 ± 0.034 and the activity coefficient (353.22 K) was determined as 0.718 ± 0.035.
Regarding `CCCO` [propan-1-ol] + NCCCCCCCCN, the activity coefficient (328.15 K) was found to be 0.567 ± 0.032, the activity coefficient (338.15 K) was determined as 0.58 ± 0.032, the activity coefficient (343.15 K) stood at 0.593 ± 0.032 and the activity coefficient (348.15 K) amounted to 0.614 ± 0.033.
In the case of `CCc1ccccc1` [ethylbenzene] + NCCCCCCCCCCCCN, the activity coefficient is, setting by setting: (348.25 K) 2.5 ± 0.13; (353.15 K) 2.47 ± 0.13; (358.25 K) 2.42 ± 0.12; (363.21 K) 2.39 ± 0.12.
As to `CCCCOC(C)=O` [butyl ethanoate] + NCCCCCCCCN, the activity coefficient is, setting by setting: (328.15 K) 1.51 ± 0.073; (338.15 K) 1.25 ± 0.058; (343.15 K) 1.14 ± 0.052; (348.15 K) 1.05 ± 0.047.
In the case of `ClCCl` [dichloromethane] + NCCCCCCCCN, the activity coefficient by setting is: (328.15 K) 0.657 ± 0.034; (338.15 K) 0.552 ± 0.032; (343.15 K) 0.53 ± 0.031; (348.15 K) 0.513 ± 0.031.
On to `CCCO` [propan-1-ol] + NCCCCCCCCCCCCN, for which the activity coefficient reads like this: (348.25 K) 0.931 ± 0.042; (353.15 K) 0.975 ± 0.043; (358.25 K) 1.04 ± 0.046; (363.21 K) 1.09 ± 0.049.
With `CCCCCCl` [1-chloropentane] + NCCCCCCCCN, the activity coefficient runs as follows: (328.15 K) 2.71 ± 0.14; (338.15 K) 2.12 ± 0.11; (343.15 K) 1.92 ± 0.098; (348.15 K) 1.73 ± 0.087.
Turning to `CCO` [ethanol] + NCCCCCCCCN, the activity coefficient runs as follows: (328.15 K) 0.384 ± 0.029; (338.15 K) 0.407 ± 0.029; (343.15 K) 0.42 ± 0.029; (348.15 K) 0.435 ± 0.029.
Consider `CCCCCCl` [1-chloropentane] + NCCCCCCCCCCCCN, for which the activity coefficient (348.25 K) came to 3.08 ± 0.16, the activity coefficient (353.15 K) came out at 2.91 ± 0.15, the activity coefficient (358.25 K) worked out at 2.73 ± 0.14 and the activity coefficient (363.21 K) came to 2.68 ± 0.14.
In the case of `C=CCCCCCCCC` [1-decene] + NCCCCCCCCCCN, the activity coefficient runs as follows: (338.2 K) 4.34 ± 0.22; (348.15 K) 3.82 ± 0.2; (353.22 K) 3.57 ± 0.18.
As for `CCCCO` [butan-1-ol] + NCCCCCCCCCCCCN, the activity coefficient reads like this: (348.25 K) 1.07 ± 0.048; (353.15 K) 1.1 ± 0.049; (358.25 K) 1.12 ± 0.051; (363.21 K) 1.16 ± 0.053.
Turning to `CCOCC` [diethyl ether] + NCCCCCCCCCCCCN, the activity coefficient reads like this: (348.25 K) 4.45 ± 0.23; (353.15 K) 4.37 ± 0.22; (358.25 K) 4.33 ± 0.22; (363.21 K) 4.25 ± 0.22.
On to `CCCCCC` [hexane] + NCCCCCCCCN, for which the activity coefficient was found to be 4.03 ± 0.21 (328.15 K), 3.83 ± 0.2 (338.15 K), 3.75 ± 0.19 (343.15 K) and 3.72 ± 0.19 (348.15 K).
For `CO` [methanol] + NCCCCCCCCCCN, the activity coefficient is, setting by setting: (338.2 K) 0.551 ± 0.032; (348.15 K) 0.634 ± 0.033; (353.22 K) 0.682 ± 0.035.
With `CCCCCCCl` [1-chlorohexane] + NCCCCCCCCN, the activity coefficient came to 3.85 ± 0.2 (328.15 K), 2.73 ± 0.14 (338.15 K), 2.38 ± 0.12 (343.15 K) and 2.02 ± 0.1 (348.15 K).
On to `CCCCCCC` [heptane] + NCCCCCCCCN, for which the activity coefficient was 4.36 ± 0.22 (328.15 K), 4.09 ± 0.21 (338.15 K), 4 ± 0.2 (343.15 K) and 3.95 ± 0.2 (348.15 K).
In the case of `CCc1ccccc1` [ethylbenzene] + NCCCCCCCCCCN, the activity coefficient was found to be 1.97 ± 0.1 (338.2 K), 1.78 ± 0.089 (348.15 K) and 1.72 ± 0.085 (353.22 K).
On to `CCCOC(C)=O` [propyl ethanoate] + NCCCCCCCCCCN, for which the activity coefficient came to 1.39 ± 0.066 (338.2 K), 1.11 ± 0.05 (348.15 K) and 0.991 ± 0.044 (353.22 K).
For `CCCCCCCCCC` [decane] + NCCCCCCCCCCN, the activity coefficient runs as follows: (338.2 K) 5.59 ± 0.29; (348.15 K) 5.03 ± 0.26; (353.22 K) 4.78 ± 0.25.
In the case of `CCCCCCCCCC` [decane] + NCCCCCCCCCCCCN, the activity coefficient reads like this: (348.25 K) 6.11 ± 0.31; (353.15 K) 5.89 ± 0.3; (358.25 K) 5.74 ± 0.29; (363.21 K) 5.6 ± 0.29.
With `CCc1ccccc1` [ethylbenzene] + NCCCCCCCCN, the activity coefficient came out at 2.07 ± 0.11 (328.15 K), 1.86 ± 0.094 (338.15 K), 1.77 ± 0.089 (343.15 K) and 1.72 ± 0.085 (348.15 K).
As to `CCOCC` [diethyl ether] + NCCCCCCCCN, the activity coefficient is 3.52 ± 0.18 (328.15 K), 3.4 ± 0.17 (338.15 K), 3.37 ± 0.17 (343.15 K) and 3.36 ± 0.17 (348.15 K).
`CCCCCl` [1-chlorobutane] + NCCCCCCCCCCN: the activity coefficient runs as follows: (338.2 K) 2.38 ± 0.12; (348.15 K) 2.12 ± 0.11; (353.22 K) 2.01 ± 0.1.
As for `C=CCCC` [1-pentene] + NCCCCCCCCN, the activity coefficient was 2.81 ± 0.14 (328.15 K), 2.7 ± 0.14 (338.15 K), 2.67 ± 0.14 (343.15 K) and 2.65 ± 0.14 (348.15 K).
For the compound `C=CCCCCCC` [oct-1-ene] + NCCCCCCCCCCN, the activity coefficient reads like this: (338.2 K) 4.09 ± 0.21; (348.15 K) 3.65 ± 0.19; (353.22 K) 3.45 ± 0.18.
On to `CCCOC(C)=O` [propyl ethanoate] + NCCCCCCCCN, for which the activity coefficient runs as follows: (328.15 K) 1.29 ± 0.06; (338.15 K) 1.08 ± 0.048; (343.15 K) 0.997 ± 0.044; (348.15 K) 0.929 ± 0.042.
With `C=CCCCCC` [1-heptene] + NCCCCCCCCCCN, the activity coefficient (338.2 K) was found to be 3.43 ± 0.18, the activity coefficient (348.15 K) is 3.1 ± 0.16 and the activity coefficient (353.22 K) amounted to 2.97 ± 0.15.
Take `CCCCOC(C)=O` [butyl ethanoate] + NCCCCCCCCCCCCN: the activity coefficient was found to be 1.69 ± 0.084 (348.25 K), 1.57 ± 0.077 (353.15 K), 1.46 ± 0.07 (358.25 K) and 1.36 ± 0.065 (363.21 K).
As for `CCCO` [propan-1-ol] + NCCCCCCCCCCN, the activity coefficient reads like this: (338.2 K) 0.622 ± 0.033; (348.15 K) 0.731 ± 0.036; (353.22 K) 0.772 ± 0.037.
Taken in the same sequence, the figures for `ClCCl` [dichloromethane] + NCCCCCCCCCCN were 1.19 ± 0.054, 1.09 ± 0.049 and 0.985 ± 0.043.
As to `CCOC(C)=O` [ethyl acetate] + NCCCCCCCCN, the activity coefficient by setting is: (328.15 K) 1.08 ± 0.048; (338.15 K) 0.954 ± 0.042; (343.15 K) 0.902 ± 0.041; (348.15 K) 0.855 ± 0.039.
In the same order, the values of `C=CCCCCCCCC` [1-decene] + NCCCCCCCCN are 4.24 ± 0.22, 3.58 ± 0.18, 3.33 ± 0.17 and 3.14 ± 0.16.
In the case of `c1ccccc1` [benzene] + NCCCCCCCCCCN, the activity coefficient was found to be 1.72 ± 0.086 (338.2 K), 1.61 ± 0.079 (348.15 K) and 1.58 ± 0.077 (353.22 K).
Take `C=CCCCCC` [1-heptene] + NCCCCCCCCN: the activity coefficient was 3.59 ± 0.18 (328.15 K), 3.21 ± 0.17 (338.15 K), 3.03 ± 0.15 (343.15 K) and 2.93 ± 0.15 (348.15 K).
For the compound `c1ccccc1` [benzene] + NCCCCCCCCCCCCN, the activity coefficient runs as follows: (348.25 K) 2.08 ± 0.11; (353.15 K) 2.07 ± 0.11; (358.25 K) 2.06 ± 0.1; (363.21 K) 2.04 ± 0.1.
Turning to `CCCCCl` [1-chlorobutane] + NCCCCCCCCCCCCN, the activity coefficient amounted to 2.71 ± 0.14 (348.25 K), 2.63 ± 0.14 (353.15 K), 2.56 ± 0.13 (358.25 K) and 2.46 ± 0.13 (363.21 K).
Consider `CCCCC` [pentane] + NCCCCCCCCCCN, for which the activity coefficient is 353 ± 18 (3.9 K), 348 ± 18 (4.022 K) and 338 ± 18 (4.331 K).
